The results in this text go back to patent publication US9963452B2, “Methods, compounds, and compositions for inhibition of ROS” (AUGUSTA PHARMACEUTICALS INC., priority 2013, dated 2018).

Common to all, as to format: cell-based
The subject of test [1] is LN18 glioblastoma cell line. The experiment in a line: In-vitro cell survival assay (Alamar blue), LN18. The settings on record: Homo sapiens, LN-18, 24 h; LN18, one day after compound addition. How it is done: (§1) Five tumor-derived cell lines were treated with the ROS inhibitor compounds and cell survival was monitored to determine the cancer prohibition effects of the compounds. The cell lines included HeLa, a cervical cancer cell line, and four glioblastoma cell lines U138, U87, LN18, and U118. The basic protocol for the in-vitro cell survival assay is the same for all five cell lines. In particular, the cells were seeded in 96-well plates at 2-5×10^3 cells/well (cell line dependent) in culture medium. The cells were grown for 2 days before the compounds were dissolved in DMSO and added to final concentrations of 100 uM, 10 uM, or 1 uM (DMSO final concentration 0.5%). The cell culture was then assayed one day after the addition of the compounds. The assay used Alamar blue as a redox-sensitive dye that interrogates mitochondrial fitness of cells, and these assays provided a readout for cell proliferation and viability. The raw values were normalized to an average of several vehicle control wells and are presented as percent decrease in proliferation/viability, which is converted to half maximal effective concentration (EC50) values.
(Alamar Blue is a resazurin reagent that responds to reducing activity.)

In test [2] the test system is HeLa cervical cancer cell line. Nature of the test: In-vitro cell survival assay (Alamar blue), HeLa. The settings on record: Homo sapiens, 24 h, one day after compound addition. How it is done: as §1
For test [3], the system named is U138 glioblastoma cell line. The experiment in a line: In-vitro cell survival assay (Alamar blue), U138. Conditions: 24 h; U138, one day after compound addition. How it is done:
as §1

The test system of test [4] is U87 glioblastoma cell line. Nature of the test: In-vitro cell survival assay (Alamar blue), U87. Conditions: 24 h; U87, one day after compound addition. How it is done: as §1
Test [5] has as its system U118 glioblastoma cell line. Nature of the test: In-vitro cell survival assay (Alamar blue), U118. The settings on record: 24 h; U118, one day after compound addition. How it is done: as §1

Usually EC50 stands for the midpoint of the concentration-response curve. A higher EC50 goes with a less potent agent. As to `O=C1NN=C(c2ccccc2)/C1=C/Nc1ccccc1` [drawing 368], the EC50 in test [1] and in test [2] was more than 100 µM each time.

As for `COc1ccc(N/C=C2\C(=O)NN=C2c2ccccc2)cc1` [drawing 369], the EC50 amounted to 78 µM in test [1] and 100 µM in test [2].

For `Cc1ccc(NC=C2C(=O)NN=C2c2ccccc2)cc1` [drawing 370], the EC50 in test [1] was 52 µM; in test [2] it was more than 100 µM.

Turning to `Nc1cccc(C2CCN(c3nccc(Nc4ccc5ncsc5c4)n3)CC2)c1` [drawing 439], the EC50 in test [1] amounted to 15 µM; in test [3], 5 µM; in test [2], 6 µM; in test [4], 14 µM.

Turning to `c1cc(Nc2nccc(Nc3ccc4ncsc4c3)n2)cc(C2CCNCC2)c1` [drawing 440], the EC50 came out at 18 µM in test [1], 25 µM in test [3], 15 µM in test [2] and 35 µM in test [4].

Regarding `C1=C(c2cccc(Nc3nccc(Nc4ccc5ncsc5c4)n3)c2)CCNC1` [drawing 441], the EC50 in test [1] stood at 22 µM; in test [3], 25 µM; in test [2], 13 µM; in test [4], 40 µM.

Turning to `Brc1cccc(Nc2nccc(Nc3ccc4ncsc4c3)n2)c1` [drawing 442], the EC50 in test [1], in test [3], in test [2] and in test [4] was more than 100 µM throughout.

In the case of `O=C(c1ccc(Nc2ncc(Cl)c(Nc3ccc4ncsc4c3)n2)cc1)N1CCCCC1` [drawing 443], the EC50 in test [1], in test [3], in test [2] and in test [4] was more than 100 µM throughout.

For the molecule `CN1CCN(C(=O)c2ccc(Nc3ncc(Cl)c(Nc4ccc5ncsc5c4)n3)cc2)CC1` [drawing 444], the EC50 in test [1] is 22 µM; in test [3], 28 µM; in test [2] it was 12 µM; in test [4], 15 µM.

In the case of `O=C(O)c1ccc(Nc2ncc(Cl)c(Nc3ccc4ncsc4c3)n2)cc1` [drawing 445], the EC50 in test [1] is 18 µM; in test [3], 100 µM; in test [2], 5 µM; in test [4], more than 100 µM.

As to `CC(C)(C)OC(=O)NC1CCN(C(=O)c2ccc(Nc3ncc(Cl)c(Nc4ccc5ncsc5c4)n3)cc2)CC1` [drawing 446], the EC50 was found to be 18 µM in test [1], 9 µM in test [3], 15 µM in test [2] and 80 µM in test [4].

On to `CC(C)c1nc(Nc2ccc3ncsc3c2)nc(N2CCCC2)n1` [drawing 451], for which the EC50 in test [1] is 40 µM; in test [3], 28 µM; in test [2], 30 µM; in test [4], more than 100 µM.

As to `CC(C)c1nc(Nc2ccc3ncsc3c2)nc(N2CCOCC2)n1` [drawing 452], the EC50 is 80 µM in test [1], 80 µM in test [3], 100 µM in test [2] and more than 100 µM in test [4].

As for `CC(C)c1nc(Nc2ccc(C(=O)NCc3ccccc3)cc2)nc(Nc2cccc(Cc3nc4ccccc4s3)c2)n1` [drawing 453], the EC50 in test [1], in test [3], in test [2] and in test [4] was more than 100 µM each time.

Turning to `CC(C)c1nc(Nc2ccc(C(=O)NCC3CCCCC3)cc2)nc(Nc2cccc(Cc3nc4ccccc4s3)c2)n1` [drawing 454], the EC50 in test [1], in test [3], in test [2] and in test [4] was more than 100 µM in each case.

For the molecule `CC(C)c1nc(Nc2ccc(C(=O)N3CCCCC3)cc2)nc(Nc2ccc3ncsc3c2)n1` [drawing 455], the EC50 was determined as 30 µM in test [1], 18 µM in test [3], 30 µM in test [2] and 40 µM in test [4].

For the molecule `CC(C)c1nc(Nc2ccc(C(=O)NC3CCCCC3)cc2)nc(Nc2ccc3ncsc3c2)n1` [drawing 456], the EC50 stood at 30 µM in test [1], 40 µM in test [3], 28 µM in test [2] and 45 µM in test [4].

`CC(C)c1nc(Nc2ccc(C(=O)N3CCCC3)cc2)nc(Nc2ccc3ncsc3c2)n1` [drawing 457]: the EC50 in test [1] stood at 20 µM; in test [3] it was 22 µM; in test [2], 4 µM; in test [4], 30 µM.

Take `CC(C)c1nc(Nc2ccc(C(=O)N3CCN(C)CC3)cc2)nc(Nc2ccc3ncsc3c2)n1` [drawing 458]: the half-maximal effective concentration (EC50) in test [1] amounted to 40 µM; in test [3], 28 µM; in test [2], 30 µM; in test [4], 35 µM.

Turning to `CC(C)c1nc(Nc2ccc(C(=O)NCc3ccccc3)cc2)nc(Nc2ccc3ncsc3c2)n1` [drawing 459], the EC50 is 80 µM in test [1], 80 µM in test [3], 35 µM in test [2] and 100 µM in test [4].

For the molecule `CC(C)c1nc(Nc2ccc(C(=O)N3CCOCC3)cc2)nc(Nc2ccc3ncsc3c2)n1` [drawing 460], the EC50 is 80 µM in test [1], more than 100 µM in test [3], 35 µM in test [2] and more than 100 µM in test [4].

Regarding `CC(C)c1nc(Nc2ccc(N)cc2)nc(Nc2cc(C3CC3)[nH]n2)n1` [drawing 461], the EC50 amounted to 40 µM in test [1], 8 µM in test [3], 14 µM in test [2] and 35 µM in test [4].

For the molecule `O=C(O)c1cccc(Nc2ncc(Cl)c(Nc3ccc4ncsc4c3)n2)c1` [drawing 462], the EC50 in test [1] is 40 µM; in test [3], 100 µM; in test [2] it was 15 µM; in test [4] it was more than 100 µM.

With `NCC1CCN(C(=O)c2ccc(Nc3ncc(Cl)c(Nc4ccc5ncsc5c4)n3)cc2)CC1` [drawing 463], the EC50 in test [1] is 100 µM; in test [3], 80 µM; in test [2], 70 µM; in test [4] it was more than 100 µM.

As to `NC1CCN(C(=O)c2ccc(Nc3ncc(Cl)c(Nc4ccc5ncsc5c4)n3)cc2)CC1` [drawing 464], the EC50 is 40 µM in test [1], 60 µM in test [3], 30 µM in test [2] and 40 µM in test [4].

Regarding `O=C(c1cccc(Nc2ncc(Cl)c(Nc3ccc4ncsc4c3)n2)c1)N1CCCCC1` [drawing 465], the EC50 is 14 µM in test [1], 15.3 µM in test [3], 7 µM in test [2] and 12 µM in test [4].

Consider `CN1CCN(C(=O)c2cccc(Nc3ncc(Cl)c(Nc4ccc5ncsc5c4)n3)c2)CC1` [drawing 466], for which the EC50 in test [1] turned out to be 15 µM; in test [3], 15 µM; in test [2], 2 µM; in test [4], 24 µM.

On to `COc1ccc(C2=CCNCC2)cc1Nc1nccc(Nc2ccc3ncsc3c2)n1` [drawing 467], for which the EC50 in test [1] was 15 µM; in test [3], 6.9 µM; in test [2], 15 µM; in test [4] it was 18 µM.

Take `O=C(NCC1CCNCC1)c1ccc(Nc2ncc(Cl)c(Nc3ccc4ncsc4c3)n2)cc1` [drawing 468]: the concentration for a half-maximal effect (EC50) in test [1], in test [3], in test [2] and in test [4] was more than 100 µM throughout.

As to `NC1CCN(C(=O)c2cccc(Nc3ncc(Cl)c(Nc4ccc5ncsc5c4)n3)c2)CC1` [drawing 469], the EC50 came out at 40 µM in test [1], 25 µM in test [3], 20 µM in test [2] and 35 µM in test [4].

Regarding `NCC1CCN(C(=O)c2cccc(Nc3ncc(Cl)c(Nc4ccc5ncsc5c4)n3)c2)CC1` [drawing 470], the EC50 in test [1] was 19 µM; in test [3] it was 20 µM; in test [2] it was 3 µM; in test [4] it was 18 µM.

For `O=C(NCC1CCNCC1)c1cccc(Nc2ncc(Cl)c(Nc3ccc4ncsc4c3)n2)c1` [drawing 471], the concentration for a half-maximal effect (EC50) in test [1] was determined as 30 µM; in test [3] it was 80 µM; in test [2] it was 30 µM; in test [4], 80 µM.

On to `Cc1ccc(NC(=O)CCn2ccc3ccccc32)cc1` [drawing 472], for which the EC50 in test [3], in test [5] and in test [2] was more than 100 µM in each case.

Turning to `CCOC(=O)c1ccc(NC(=O)CCn2ccc3ccccc32)cc1` [drawing 473], the EC50 in test [3], in test [5] and in test [2] was more than 100 µM throughout.

As for `COc1ccc(NC(=O)CCn2ccc3ccccc32)cc1` [drawing 474], the 50% effective concentration (EC50) in test [3] is more than 100 µM; in test [5], more than 100 µM; in test [2], 30 µM.

As for `O=C(CCn1ccc2ccccc21)Nc1ccc(F)cc1` [drawing 475], the EC50 in test [3], in test [5] and in test [2] was more than 100 µM in each case.

In the case of `COc1ccc(C(F)(F)F)cc1NC(=O)CCn1ccc2ccccc21` [drawing 476], the EC50 was 98 µM in test [3], 47 µM in test [5] and more than 100 µM in test [2].

Take `O=C(CCn1ccc2ccccc21)Nc1cnccn1` [drawing 477]: the concentration giving a half-maximal response (EC50) in test [3] stood at 92 µM; in test [5], 33 µM; in test [2], 64 µM.

As for `CCc1cc(Br)ccc1NC(=O)CCn1ccc2ccccc21` [drawing 478], the EC50 is more than 100 µM in test [3], more than 100 µM in test [5] and 43 µM in test [2].

Regarding `NC(Cc1ccccc1)C(=O)n1ccc2cccnc21` (centres unmarked) [drawing 479], the EC50 is more than 100 µM in test [3], more than 100 µM in test [5] and 45 µM in test [2].
